Data from publication PMC12040169 (PLOS Biology, 2025).

test: in vitro; details: human, hela cells, % viability

First: CCn1ncnc1CN1CCN(Cc2ccccc2CO)CC1 [CBK306717]
Second: COC(=O)CCc1ccc(S(=O)(=O)N2CCCN(Cc3cccc4c3OCO4)CC2)cc1 [CBK062993]
The viability at 28.5 h, 10 µM of the first is lower: 88.1% for the first, 88.8% for the second.

Going from `O=C(CSc1nnc(-c2ccccn2)[nH]1)NC1CC2CCC1C2` (stereo not drawn) [CBK269994] to `Cc1cc(C(=O)NCc2cccnc2N(C)C2CCCCC2)[nH]n1` [CBK306668], the viability at 28.5 h, 10 µM rises from 83% to 104%.

Going from `NNC(=O)CSc1nnc(-c2ccc(Cl)cc2)n1-c1ccccc1` [CBK263010] to `Nc1ncc(-c2ccccc2)nc1-c1ccc(O)cc1` [CBK064030], the viability at 28.5 h, 10 µM rises from 81.3% to 96.7%.

Going from `O=c1oc2ccccc2n1Cc1coc(-c2ccccc2)n1` [CBK296649] to `Oc1nc2ccccc2nc1-c1ccccc1` [CBK016193], the viability at 28.5 h, 10 µM falls from 98.1% to 94.3%.

Going from `CCCCOc1ccc(C(=O)N(C)c2cnn(C)c2)c(O)c1` [CBK306167] to `CCOc1ccc(Cl)cc1CCNC(=O)NC(C)c1nnnn1C` (stereo not drawn) [CBK305923], the viability at 28.5 h, 10 µM falls from 89.5% to 89.2%.

Going from `O=C(COc1ccc(NS(=O)(=O)c2ccc3c(c2)Cc2ccccc2-3)cc1)N1CCOCC1` [CBK266030] to `O=C(c1cccc(S(=O)(=O)Nc2ccc(Br)cc2)c1)N1CCCC1` [CBK296709], the viability at 28.5 h, 10 µM falls from 101% to 67.4%.

Compared with `O=c1[nH]c2ncc(-c3cccc(-c4ccccc4)c3)nc2n1CCCN1CCOCC1` [CBK064311], `Cc1ccc2c(c1)CCN(S(C)(=O)=O)C21CCN(CCCOc2ccccc2)CC1` [CBK081066] is higher in viability at 28.5 h, 10 µM: 92.1% for the first, 96.8% for the second.

Compared with `CCCC/C=C/c1cn2ccnc2c(NCc2cc(OC)c(OC)c(OC)c2)n1` [CBK066331], `COc1ccc(-c2cnc(N)c(NCC(C)(C)CO)n2)c(OC)c1OC` [CBK063542] is higher in viability at 28.5 h, 10 µM: 93.1% for the first, 103% for the second.

Compared with `c1ccc2c(CSc3ncn[nH]3)cccc2c1` [CBK025610], `CNC(=O)c1cnc(SC)nc1NCCc1c[nH]c2ccccc12` [CBK093597] is lower in viability at 28.5 h, 10 µM: 114% for the first, 104% for the second.

Compared with `Cc1ccccc1OCC(O)Cn1c(=N)n(CCN2CCCCC2)c2ccccc21` (stereo not drawn) [CBK266698C], `N#CCCn1cc(C(=O)N2CCCCC2)c(-c2cc3ccccc3o2)n1` [CBK306206] is lower in viability at 28.5 h, 10 µM: 98.1% for the first, 95.1% for the second.

First: O=C(c1ccc(F)cc1)N1CCC[C@@H]1Cn1c(=O)oc2ccccc21 [CBK284529]
Second: CC(C)(CC(=O)O)CC(=O)N1CCCC1c1nc(-c2ccccc2)c2ccccn12 (stereo not drawn) [CBK046399]
The viability at 28.5 h, 10 µM of the first is lower: 89.4% for the first, 98.8% for the second.

Going from `CCc1cccc(NC(=O)c2cnc(-c3ccc(Cl)cc3)c(-c3ccc(OC)nc3)c2)n1` [CBK036671] to `COc1cc(OC)cc(C(=O)Nc2ccc(C(=O)c3ccccc3)cc2)c1` [CBK098732], the viability at 28.5 h, 10 µM rises from 93.7% to 106%.

Going from `O=C(O)COc1cccc(NC(=O)c2ccccc2)c1` [CBK264602] to `O=C(Nc1ccccc1)c1ccc(COc2ccc3ccccc3c2)o1` [CBK265897], the viability at 28.5 h, 10 µM rises from 88.3% to 113%.

Going from `CN1CCN(C(=O)c2ccsc2NS(=O)(=O)Cc2ccccc2)CC1` [CBK042266] to `O=C(O)c1ccc(Br)c(S(=O)(=O)NCc2ccccc2)c1` [CBK263202], the viability at 28.5 h, 10 µM falls from 97.5% to 90.8%.

First: O=c1ccc2ccc(-c3ccc(OC(F)(F)F)cc3)nc2[nH]1 [CBK073720]
Second: Cc1ccc(Cl)cc1-n1cc(-c2ccc(F)cc2)nn1 [CBK113128]
The viability at 28.5 h, 10 µM of the first is lower: 98.8% for the first, 98.9% for the second.

Going from `COc1ccc2[nH]c(Sc3c([N+](=O)[O-])nc(C)n3Cc3ccccc3)nc2c1` [CBK263235] to `COc1cccc(CN(Cc2ccco2)Cc2[nH]cnc2C)c1` [CBK282495], the viability at 28.5 h, 10 µM rises from 80.7% to 81.4%.

Going from `O=C(O)COCC(=O)N1CCC2(CC1)NC(=O)Cc1c2ccc2ccccc12` [CBK047168] to `O=C(CN1CCCC2(CCN(C(=O)Cc3c[nH]c4ccccc34)C2)C1)Nc1ccc(F)c(Cl)c1` (stereo not drawn) [CBK132047], the viability at 28.5 h, 10 µM rises from 88.4% to 108%.

First: NC1=NN(c2ccccc2)C(=O)C1 [CBK144946]
Second: CC(=O)OC1CCn2c1nc1ccccc12 (stereo not drawn) [CBK113621]
The viability at 28.5 h, 10 µM of the first is higher: 97.3% for the first, 92.6% for the second.

Compared with `N#Cc1ccc(CNC2(Cc3cc(CO)on3)COC2)cc1` [CBK289647], `O=C1CN(C(=O)NCc2ccc(Cl)cc2)CCN1` [CBK155867] is higher in viability at 28.5 h, 10 µM: 104% for the first, 109% for the second.

Going from `CCNC(=O)Nc1ccc(-c2ccc(S(C)(=O)=O)cc2)c2ccccc12` [CBK083728] to `CC(=O)Nc1ccc(-c2ccc(=O)n3c2[C@@H]2C[C@@H](CN(C(=O)c4ccccc4)C2)C3)cc1` [CBK289198], the viability at 28.5 h, 10 µM rises from 88.1% to 89.4%.

Going from `O=C(CN1CCN(CCCc2c[nH]c3ccc(F)cc23)CC1)N(c1ccccc1)C1CCCCC1` [CBK074710] to `CCN(CC)C(=O)C1CCCN(C2CCN(C(=O)c3c4ccccc4cc4ccccc34)CC2)C1` (stereo not drawn) [CBK066966], the viability at 28.5 h, 10 µM rises from 92.1% to 102%.

Compared with `CCCC/N=C(\NS(=O)(=O)c1ccc(C)cc1)OCC` [CBK022731], `CCC(C)(C)c1ccc(S(=O)(=O)Nc2ccc3ncsc3c2)cc1` [CBK043490] is higher in viability at 28.5 h, 10 µM: 106% for the first, 113% for the second.

Compared with `O=C(Nc1ccc(Br)cc1C(=O)O)c1cccc(C(=O)Nc2ccc(Br)cc2C(=O)O)c1` [CBK261395], `Cc1ccc(C2C(C(=O)c3ccccc3)=C(O)C(=O)N2CCC(=O)O)cc1` (stereo not drawn) [CBK286642] is lower in viability at 28.5 h, 10 µM: 90.5% for the first, 81.1% for the second.

Compared with `CCOC(=O)C(C)N1C(=O)S/C(=C/c2cc(C)n(-c3ccncc3)c2C)C1=O` (stereo not drawn) [CBK265145], `CCOC(=O)CN1C(=O)S/C(=C/c2cc(C)n(-c3cc(C)ccn3)c2C)C1=O` [CBK264731] is lower in viability at 28.5 h, 10 µM: 99.9% for the first, 95.2% for the second.

First: c1ccc([C@@H]2CN(CC3CCOC3)C[C@H]2c2cc[nH]n2)cc1 (stereo partly drawn) [CBK285163]
Second: CCN(CC)C(=O)C1CCCN(C(=O)Nc2ccc3[nH]ccc3c2)C1 (stereo not drawn) [CBK156133]
The viability at 28.5 h, 10 µM of the first is higher: 110% for the first, 98% for the second.

Compared with `COc1ccc(C)cc1S(=O)(=O)N(CC(=O)O)c1ccc(Cl)c(Cl)c1` [CBK269095], `COC(=O)c1ccc(C)c(NS(=O)(=O)c2cc(Cl)ccc2Cl)c1` [CBK077971] is lower in viability at 28.5 h, 10 µM: 104% for the first, 90.9% for the second.

Going from `CCc1ccccc1NC(=O)Cn1ncnc1Sc1nc2c(c(=O)n(C)c(=O)n2C)n1C` [CBK265963] to `Cc1ccnc(SCCn2c(N(C)Cc3ccccc3)nc3c2c(=O)n(C)c(=O)n3C)n1` [CBK269394], the viability at 28.5 h, 10 µM rises from 87.6% to 98.9%.

Going from `CSCCC(=O)NCc1c(-c2ccccc2)noc1C` [CBK144092] to `Cc1sc2ccc(-c3ccccc3)cc2[n+]1CCCS(=O)(=O)[O-]` [CBK260947], the viability at 28.5 h, 10 µM rises from 85.9% to 90.7%.

Going from `COc1ccc(C2CC(c3c(-c4ccccc4)c4cc(Cl)ccc4[nH]c3=O)=NN2C(=O)CCC(=O)O)cc1OC` (stereo not drawn) [CBK296128] to `O=C(O)CCC(=O)Nc1ccccc1Sc1ccc(Cl)cc1` [CBK287015], the viability at 28.5 h, 10 µM falls from 103% to 99.4%.

First: CC(C)n1cc(C(=O)NCc2cccnc2N(C)C2CCCCC2)cn1 [CBK307593]
Second: CN(CC1CCN(C(=O)OC(C)(C)C)CC1)c1ccnc(-c2ccncc2)n1 [CBK166064]
The viability at 28.5 h, 10 µM of the first is higher: 105% for the first, 101% for the second.

Going from `CC(=O)NC(c1nccs1)C1CCN(C(=O)C2CC2C)CC1` (stereo not drawn) [CBK282232] to `Cc1nc(C)n(CC2CCCN(S(=O)(=O)c3cnc4ccsc4c3)C2)n1` (stereo not drawn) [CBK306274], the viability at 28.5 h, 10 µM falls from 101% to 84.3%.

First: c1ccc(N2CCN(c3nc(-c4ccoc4)cn4ccnc34)CC2)nc1 [CBK066522]
Second: O=C(c1cc2cc(F)ccc2[nH]1)N1CCN(c2ncccn2)CC1 [CBK107280]
The viability at 28.5 h, 10 µM of the first is higher: 99.7% for the first, 91.8% for the second.

Compared with `CC(=O)Oc1cc(C(F)(F)F)nc(NCc2ccc(Cl)cc2)n1` [CBK000500], `Oc1ccc(-n2cc(-c3ccccc3C(F)(F)F)nn2)cc1` [CBK112971] is higher in viability at 28.5 h, 10 µM: 94.7% for the first, 95.5% for the second.

Going from `O=[N+]([O-])c1c(N(CCO)CCO)cc(Cl)c2nonc12` [CBK261446] to `CC(=O)NCCNc1ccc(C(=O)O)cc1[N+](=O)[O-]` [CBK264184], the viability at 28.5 h, 10 µM falls from 92.5% to 87.8%.

`Cc1ccc(N(CC(=O)NN=C2CCCCCCCCCCC2)S(=O)(=O)c2ccccc2)cc1` [CBK262192] and `O=S(=O)(Nc1ncc(Br)c2cccnc12)c1ccc(Oc2ccccc2)cc1` [CBK073886] are the same in viability at 28.5 h, 10 µM: 105% for the first, 105% for the second.

Compared with `CN(C)[C@H]1CCCC[C@@H]1n1c(-c2ccc(Cl)c(Cl)c2)n[nH]c1=O` [CBK010566], `S=c1[nH]nc(COc2ccc(Cl)cc2Cl)[nH]1` [CBK288511] is lower in viability at 28.5 h, 10 µM: 114% for the first, 80.3% for the second.

Going from `COc1ccccc1NC(=O)C1C2NC(=S)NC1(C)Oc1c(OC)cccc12` (stereo not drawn) [CBK269013] to `CN(C)CCN(C)C(=O)c1ccc(-c2ccco2)nc1N(C)C` [CBK106078], the viability at 28.5 h, 10 µM falls from 107% to 84.1%.

First: O=C(NCCF)c1cn2cc(-c3cccs3)n(CC3CC3)c(=O)c2n1 [CBK307367]
Second: Cc1nc(C(Cc2ccsc2)NC(=O)Cn2cccn2)sc1C (stereo not drawn) [CBK284781]
The viability at 28.5 h, 10 µM of the first is higher: 96.8% for the first, 93.9% for the second.

Compared with `c1ccc(Cn2cc(-c3nccnc3OCc3ccccn3)cn2)cc1` [CBK107088], `Clc1ccc(Cl)c(-c2ccc(CNCc3cccnc3)o2)c1` [CBK269720C] is higher in viability at 28.5 h, 10 µM: 98.9% for the first, 103% for the second.

Compared with `Cc1ccc(N(CCc2cc(C(F)(F)F)cc(C(F)(F)F)c2)C(=O)CN)cc1NC(=O)CN(C)C` [CBK003630T], `Cc1nc(CCNc2ccc(-c3nc(C)c(C)c(=O)[nH]3)cn2)cs1` [CBK305497] is higher in viability at 28.5 h, 10 µM: 84.5% for the first, 107% for the second.

Going from `COCCc1noc(CC2CCN(c3nc(C)cc(C#N)n3)CC2)n1` [CBK304179] to `CN1CCCC(OC(=O)C2CCCCC2)C1` (stereo not drawn) [CBK090234], the viability at 28.5 h, 10 µM rises from 88.5% to 104%.

Going from `Nc1nc(=O)n([C@H]2C[C@@H](O)[C@@H](CO)O2)cc1Br` [CBK201161] to `CC(N(C)S(=O)(=O)c1ccc(-n2ncc(Cl)c(Cl)c2=O)cc1)C(C)(C)C` (stereo not drawn) [CBK304544], the viability at 28.5 h, 10 µM falls from 97.1% to 73.9%.

same assay, conditions: human, hela cells, % viability, bulk resorufin, single well

Compared with `c1cc(-c2ccc3c(c2)COC2(CCNCC2)O3)ccn1` [CBK060867], `COc1ccc(Cl)cc1N1CCN(Cc2c(F)cccc2F)CC1` [CBK126410] is lower in viability at 28.5 h, 10 µM: 99% for the first, 90.9% for the second.

Work on `O=C(N[C@H]1CCN2C(=O)N(CCCl)C(=O)[C@@H]2C1)c1cccs1` [CBK289542] yielded a viability at 28.5 h, 10 µM of 90.8%.
